From publication PMC13224100, “Esterase-Responsive Mitochondria-Targeted Hydropersulfide Donors Mitigate Doxorubicin Cardiotoxicity While Preserving Anticancer Activity” (Angewandte Chemie (International ed. in English), 2025)
“And” between values parts separate entries of the source, which are not always exact repeats. Identical values can stand only once.

Test system: porcine liver esterase (PLE)
Assay: Esterase-mediated RSSH release kinetics with HPE-IAM trapping (UPLC-MS)
Type: biochemical
Details: precursor 25 μM, PLE 1 U mL^−1, HPE-IAM 250 μM, ammonium bicarbonate pH 7.4, DTPA, 37 °C; for half-life at 25 µM: pig, porcine liver esterase, read-out: t1/2 (min) Precursor consumption
Method: We then assessed esterase-mediated activation of AST-2 by incubating it with porcine liver esterase (PLE) in the presence of β-(4-hydroxyphenyl)ethyl iodoacetamide (HPE-IAM, 10 equiv), a trapping agent for RSSH.[39] We anticipated that PLE-catalyzed hydrolysis would release RSSH, which would subsequently be trapped by HPE-IAM to generate RSS-HPE-AM (Figure 1a). […] In addition, a minor amount of dialkyl trisulfide formation is observed (Figures 1b and S5), which we attribute to the reaction of the released RSSH with the precursor AST-2.
Figure 1. a) Schematic of esterase-mediated RSSH release from AST-2 in the presence of the trapping agent HPE-IAM. b) Representative UPLC-MS traces showing time-dependent conversion of AST-2 (25 μM) to RSS-HPE-AM upon treatment with porcine liver esterase (1 U mL^−1) and HPE-IAM (250 μM) in 100 mM ammonium bicarbonate buffer (pH 7.4) containing the metal chelator diethylenetriaminepentaacetic acid (DTPA) (100 μM) at 37 °C. Aliquots were quenched with formic acid and analyzed by UPLC-MS. […] Rate constants and half-lives are reported as mean ± SD (n = 3). Curves represent best fits to single-exponential functions.
Figure 2. a) Reaction scheme showing esterase-triggered RSSH release from APT-1 via a two-step activation involving deacetylation and intramolecular cyclization. b) Representative UPLC-MS traces showing the time-dependent conversion of APT-1 (25 μM) to intermediate 1 and subsequent formation of RSS-HPE-AM in the presence of PLE (1 U mL^−1) and HPE-IAM (250 μM) at 37 °C. Asterisk indicates a minor impurity in the blank control. […] Rate constants and half-lives are reported as mean ± SD (n = 3). Curves represent best fits to single exponential functions as described in the text.
B. Kinetics of RSSH Generation.
Kinetics of RSSH generation were conducted as previously described.[5] Stock solutions of RSSH […]
precursor (10 mM in DMSO), HPE-IAM (100mM in DMSO), and porcine liver esterase (PLE, 2000 U/mL in ammonium bicarbonate buffer) were freshly prepared. RSSH precursors (25 μM) were […]
then immediately incubated with HPE-IAM (250 μM) and PLE (1 U/mL, from Sigma-Aldrich, […]
E3019-20KU, ≥ 15 U/mg protein) in ammonium bicarbonate buffer (100 mM, pH 7.4) containing diethylenetriaminepentaacetic acid (DTPA, 100 μM) at 37 °C. At the indicated time points, 500 μL […]
aliquots were withdrawn, quenched with concentrated formic acid (5 μL, […]), and […]
ultracentrifuged at 12,500 rpm for 5 min. The resulting supernatants were diluted with acetonitrile […]
(200 μL supernatant + 300 μL of acetonitrile) and analyzed by UPLC–MS using a Waters Acquity […]
(MSe, 10 scans/s). Chromatographic separation was performed on a C18 reverse-phase column […]
(Waters Acquity BEH C18, 2.1 × 50 mm, 1.7 μm) at 4 °C, with a flow rate of 0.3 mL/min and the […]
following gradient (v/v; water containing 0.1% formic acid as solvent A, acetonitrile as solvent B):
B; 8.5–10 min, return to 100% A. The injection volume was 5 μL. Mass spectral data were […]
processed using MassLynx 4.1, and extracted ion chromatograms (EICs) corresponding to the […]
exact masses of the RSSH precursor, intermediate, and the trapped product (RSS–HPE-AM) […]
were integrated to quantify substrate consumption and product formation. Kinetic data were fitted […]
to a single exponential curve using Origin. All experiments were performed in triplicate (n = 3), […]
and results are reported as mean ± standard deviation (SD).
HRMS Data for Compounds Formed during RSSH Generation from AST-2 […]
Figure S2. HRMS of the peak eluting at 5.6 min corresponding to AST-2.
Esterase-mediated hydrolysis of AST-2-TPP monitored by UPLC-MS […]
Figure S11. (A) Representative UPLC-MS traces showing esterase-mediated hydrolysis of AST-2-TPP (25 […]
μM) in the presence of HPE-IAM (250 μM) in ammonium bicarbonate buffer (pH 7.4, 100 mM) containing […]
the metal chelator DTPA (100 μM) at 37 °C. […]

In the case of `COC(=O)C(NC(C)=O)C(C)(C)SSC(=O)N(C)CCOC(C)=O` (stereo not drawn) [APT-1], the half-life at 25 µM is reported as 17.1 ± 0.4 min, the “first-order rate constant k (k1) of precursor consumption / deacetylation” value is reported as 0.0406 ± 0.0010 min⁻¹ and the “first-order rate constant k (k2) of RSS-HPE-AM formation (RSSH release)” value (from here on “first-order rate constant k (k2)”) is reported as 0.0067 ± 0.0006 min⁻¹.

With `COC(=O)SSC(C)(C)C(NC(C)=O)C(=O)N(C)CCC[P+](c1ccccc1)(c1ccccc1)c1ccccc1` (stereo not drawn) [AST-2-TPP] the half-life at 25 µM was 20.7 ± 0.6 min, the “first-order rate constant k (k1) of precursor consumption / deacetylation” value was 0.0335 ± 0.0010 min⁻¹ and the “first-order rate constant k (k2)” value was 0.03467 ± 0.0028 min⁻¹ and 0.0347 ± 0.0028 min⁻¹.

`CC(=O)NC(C(=O)N(C)CCC[P+](c1ccccc1)(c1ccccc1)c1ccccc1)C(C)(C)SSC(=O)N(C)CCOC(C)=O` (stereo not drawn) [APT-1-TPP] was tested, and the half-life at 25 µM was 5.2 ± 0.2 min, the “first-order rate constant k (k1) of precursor consumption / deacetylation” value was 0.1338 ± 0.0049 min⁻¹ and 0.134 ± 0.005 min⁻¹ and the “first-order rate constant k (k2)” value was 0.0056 ± 0.0004 min⁻¹.

`COC(=O)SSC(C)(C)C(NC(C)=O)C(=O)OC` (stereo not drawn) [AST-2] was tested, and the half-life at 25 µM was 50.1 ± 1.8 min, the “first-order rate constant k (k1) of precursor consumption / deacetylation” value was 0.0139 ± 0.0005 min⁻¹ and the “first-order rate constant k (k2)” value was 0.0144 ± 0.0006 min⁻¹.
